Columns and labels:
hAT1R [1] = target: T1, hAT1R (Homo sapiens, UniProt P30556); assay: BRET β-arrestin2 biosensor assay, higher receptor expression (hAT1R 5 ng/well), HEK293 cells; type: cell-based; conditions: for EC50: High AT1R Expression
T1 sequence (P30556 1-359): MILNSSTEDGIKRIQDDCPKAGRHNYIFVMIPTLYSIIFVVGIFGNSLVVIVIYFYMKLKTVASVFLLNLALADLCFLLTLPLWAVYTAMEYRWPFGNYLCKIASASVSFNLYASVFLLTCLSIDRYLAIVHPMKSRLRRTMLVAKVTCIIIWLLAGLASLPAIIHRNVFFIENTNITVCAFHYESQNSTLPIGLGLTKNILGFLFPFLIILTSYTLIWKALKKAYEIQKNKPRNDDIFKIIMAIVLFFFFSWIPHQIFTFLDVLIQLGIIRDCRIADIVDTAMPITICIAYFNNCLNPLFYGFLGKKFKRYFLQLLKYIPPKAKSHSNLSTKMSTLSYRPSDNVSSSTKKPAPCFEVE

hAT1R [2] = target: T1, hAT1R; assay: cell-based; conditions: Low AT1R Expression; for EC50: read-out: BRET β-Arrestin2 Low AT1R Expression EC50
hAT1R [3] = target: T1, hAT1R; assay: cell-based; conditions: agonist mode; for EC50: read-out: BRET P63 EC50
AGTR1 [4] = target: T2, AGTR1 (Homo sapiens, UniProt P30556); assay: DiscoveRx β-arrestin2 recruitment assay (enzyme complementation, Pathunter CHO-K1 AGTR1 β-arrestin cell line); type: cell-based; conditions: DiscoveRx β-arrestin2 recruitment; for DiscoveRx β-arrestin2 Ymax (%): maximal response
T2 construct: host or cells: Pathunter CHO-K1 AGTR1 β-arrestin cell line (CHO-K1)
T2 sequence (P30556 1-359): T1 sequence (P30556 1-359)
Method in brief: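 CHO-K1 cells expressing AGTR1 with β-arrestin2 enzyme-complementation reporter, plated 14-16 h ahead in 1% serum medium, then exposed to compounds for 90 min at 37° C. Chemiluminescence read after 1 h detection. EC50 (agonist) or IC50 (antagonist) from 4-parameter logistic fit; activity as percentage of All maximal effect.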

AGTR1 [5] = target: T2, AGTR1; assay: DiscoveRx IP1 accumulation assay (HTRF), agonist mode, Pathunter CHO-K1 AGTR1 β-arrestin cell line; type: cell-based; conditions: for EC50: read-out: IP-1 EC50
Method in brief: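 Agonist mode in CHO-K1 AGTR1 β-arrestin cells plated 14-16 h before; compounds at varying concentrations for 90 min at 37° C, IP1 accumulation read by HTRF (D2-conjugate and anti-IP1 cryptate, 20 min room temperature). EC50 from 4-parameter logistic fit; activity given as percentage of maximal AII effect.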

| SMILES | BRET β-Arrestin2 High AT1R Expression Ymax (%) (hAT1R [1]) | EC50 (hAT1R [1]) [nM] | EC50 (hAT1R [2]) [nM] | EC50 (hAT1R [3]) [nM] | EC50 (AGTR1 [4]) [nM] | DiscoveRx β-arrestin2 Ymax (%) (AGTR1 [4]) | IP-1 Ymax (%) (AGTR1 [5]) | EC50 (AGTR1 [5]) [nM] | BRET β-Arrestin2 Low AT1R Expression Ymax (%) (hAT1R [2]) | BRET P63 Ymax (hAT1R [3]) [%] |
| --- | --- | --- | --- | --- | --- | --- | --- | --- | --- | --- |
| CCc1nc2c(C)cc(C)nc2n1Cc1ccc(-c2cc(-c3cccc(C)n3)ccc2-c2nn[nH]n2)cc1 [Example 59] | 52.1 | 14 | > 10000 | > 10000 | 12.5 | 29.5 | 10.4 | 21.9 |  |  |
| CCc1nc2c(C)cc(C)nc2n1Cc1ccc(-c2cc(-c3cncc(C)c3)ccc2-c2nn[nH]n2)cc1 [Example 60] | 85.8 | 19.6 | 93.3 | > 10000 | 53.7 | 33.5 | 5.3 | 83.1 | 39.4 |  |
| CCc1nc2c(C)cc(C)nc2n1Cc1ccc(-c2cc(-c3cccc(C(F)(F)F)n3)ccc2-c2nn[nH]n2)cc1 [Example 61] | 81.4 | 16.1 | 108 | 22.3 | 31.5 | 43.7 | 9.8 | 150 | 38.2 | 6.4 |
| CCc1nc2c(C)cc(C)nc2n1Cc1ccc(-c2cc(-c3ccc(CO)cc3)ccc2-c2nn[nH]n2)cc1 [Example 63] | 76.6 | 7.5 | 26.5 | 23.2 | 10.2 | 26.1 | 21.4 | 51.3 | 59.3 | 12.4 |
| CCc1nc2c(C)cc(C)nc2n1Cc1ccc(-c2cc(-c3cc(C)ccn3)ccc2-c2nn[nH]n2)cc1 [Example 64] | 92.5 | 1.9 | 3.1 | 2.6 | 6.9 | 67.8 | 30.8 | 23.2 | 98.7 | 41.3 |
| CCc1nc2c(C)cc(C)nc2n1Cc1ccc(-c2cc(-c3ccccc3)ccc2-c2noc(=S)[nH]2)cc1 [Example 72, 3-(4″-((2-ethyl-5,7-dimethyl-3H-imidazo[4,5-b]pyridin-3-yl)methyl)-[1,1′:3′,1″-terphenyl]-4′-yl)-1,2,4-oxadiazole-5(4H)-thione] | 85.8 | 33.2 | 58.2 | 43 | 22.6 | 63.6 | 8.5 | 92 | 44.4 | 11.8 |
| CCc1nc2c(C)cc(C)nc2n1Cc1ccc(-c2cc(N3CCCC(F)(F)C3)ccc2-c2nn[nH]n2)cc1 [Example 83] | 87.3 | 52.1 | 152 | 54.8 | 23.9 | 40.5 | 9.0 | 26.9 | 43.1 | 8.2 |
| CCC1=NC2(CCCC2)C(=O)N1Cc1ccc(-c2cc(-c3ccccc3)ccc2-c2nn[nH]n2)cc1 [Example 112, 3-((6′-(2H-tetrazol-5-yl)-[1,1′:3′,1″-terphenyl]-4-yl)methyl)-2-ethyl-1,3-diazaspiro[4.4]non-1-en-4-one] | 78.5 | 30.6 | 174 | 46.8 | 124 | 33.4 | 7.7 | 284 | 39.3 | 8.2 |
| CCCC1=NC2(CCCC2)C(=O)N1Cc1ccc(-c2cc(-c3ccccc3)ccc2-c2nn[nH]n2)cc1 [Example 114, 3-((6′-(2H-tetrazol-5-yl)-[1,1′:3′,1″-terphenyl]-4-yl)methyl)-2-propyl-1,3-diazaspiro[4.4]non-1-en-4-one] | 89.2 | 11.9 | 36.6 | 66.5 | 49.9 | 46.5 | 8.3 | 122 | 57.2 | 11.8 |
